Molecules are shown by their SMILES. Where a SMILES comes first, the peptide text is derived from it. Bridges are numbered along the chain shown (N, C = ends). [ ]: non-standard residue; d: D form. The star is where a group is joined. ξ: configuration not given here. Phe(4-COOH) = N[C@@H](Cc1ccc(C(=O)O)cc1)C(=O)O; Bip = N[C@@H](Cc1ccc(-c2ccccc2)cc1)C(=O)O; Phe(3-Me) = Cc1cccc(C[C@H](N)C(=O)O)c1; 4Pal = N[C@@H](Cc1ccncc1)C(=O)O; Cha = N[C@@H](CC1CCCCC1)C(=O)O; Ile(3ξ) = CCC(C)[C@H](N)C(=O)O; Thr(3ξ) = CC(O)[C@H](N)C(=O)O; NMeS = CN[C@@H](CO)C(=O)O; Carboxymethyl = O=C(O)C*; NMeA = CN[C@@H](C)C(=O)O; Aun = NCCCCCCCCCCC(=O)O; Dab = NCC[C@H](N)C(=O)O; AEEA = NCCOCCOCC(=O)O; Sar = CNCC(=O)O

The target in this assay is T1, PD-1/PD-L1 interaction (PE-labeled human PD-L1-Ig binding to Jurkat cell line over-expressing human PD-1) (Homo sapiens, UniProt Q15116).
T1 construct: expressed in transfected cells; host or cells: Jurkat
T1 sequence (Q15116 25-288): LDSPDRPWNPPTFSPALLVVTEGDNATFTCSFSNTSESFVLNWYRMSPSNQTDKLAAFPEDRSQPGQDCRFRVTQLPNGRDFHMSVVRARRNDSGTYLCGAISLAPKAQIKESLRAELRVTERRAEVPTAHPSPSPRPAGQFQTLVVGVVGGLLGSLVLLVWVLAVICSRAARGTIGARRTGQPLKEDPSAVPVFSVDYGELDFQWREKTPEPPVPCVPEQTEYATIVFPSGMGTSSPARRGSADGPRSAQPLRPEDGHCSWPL
Kind of assay: Jurkat-PD-1 Cell Binding High-Content Screening Assay (CBA). The settings on record: Jurkat-hPD-1 cells, PE-labeled PD-L1-Ig 20 nM final; read-out: Jurkat HPD1 PDL1 IC50. The essentials: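 Read-out: high-content imaging of cell-bound PE fluorescence, with Hoechst 33342 nuclear counterstain after paraformaldehyde fixation. Before labeled ligand (20 nM final, 1 h) was added, compound sat on the cells for 2 h at 37 °C in DMEM/10% FCS.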
The term IC50 denotes the concentration needed to halve the response being measured. For the molecule `Cc1cccc(C[C@@H]2NC(=O)[C@H](CC(=O)O)NC(=O)[C@H](Cc3ccc(OCC(=O)O)cc3)NC(=O)[C@H](C(C)O)NC(=O)CSC[C@@H](C(=O)N(C)CC(=O)NCCCCCCCCCCC(=O)O)NC(=O)[C@H](CCC(N)=O)NC(=O)[C@H](C(C)C)NC(=O)[C@H](CC3CCCCC3)NC(=O)[C@H](CCN)NC(=O)[C@@H](CC(C)C)NC(=O)[C@H](C)N(C)C(=O)[C@H](C(C)C)NC(=O)[C@H](Cc3ccc(-c4ccccc4)cc3)NC(=O)[C@H](Cc3ccc(O)cc3)NC2=O)c1` (stereo partly drawn) [Example 2265] ({CH2CO}-[Thr(3ξ)]Y(Carboxymethyl)D[Phe(3-Me)]Y[Bip]V[NMeA][dL][Dab][Cha]VQC[Sar][Aun]-OH; thioether N-14), the half-inhibitory concentration (IC50) was determined as 427 nM. For the molecule `Cc1cccc(C[C@@H]2NC(=O)[C@H](CC(=O)O)NC(=O)[C@H](Cc3ccc(OCC(=O)O)cc3)NC(=O)[C@H](CC(N)=O)NC(=O)CSC[C@@H](C(=O)N(C)CC(=O)NCCCCCCCCCCC(=O)O)NC(=O)[C@H](CCC(=O)O)NC(=O)[C@H](C(C)C)NC(=O)[C@H](CC3CCCCC3)NC(=O)[C@H](CCN)NC(=O)[C@@H](CC(C)C)NC(=O)[C@H](C)N(C)C(=O)[C@H](C(C)C)NC(=O)[C@H](Cc3ccc(-c4ccccc4)cc3)NC(=O)[C@H](Cc3ccc(O)cc3)NC2=O)c1` [Example 2266] ({CH2CO}-NY(Carboxymethyl)D[Phe(3-Me)]Y[Bip]V[NMeA][dL][Dab][Cha]VEC[Sar][Aun]-OH; thioether N-14), the half-maximal inhibitory concentration (IC50) was 334 nM.

`Cc1cccc(C[C@@H]2NC(=O)[C@H](CC(=O)O)NC(=O)[C@H](Cc3ccc(OCC(=O)O)cc3)NC(=O)[C@H](CCCNC(=N)N)NC(=O)CSC[C@@H](C(=O)N[C@@H](CCN)C(=O)NCCCCCCCCCCC(=O)O)NC(=O)[C@H](CCC(N)=O)NC(=O)[C@H](C(C)C)NC(=O)[C@H](CC3CCCCC3)NC(=O)[C@H](CCN)NC(=O)[C@@H](CC(C)C)NC(=O)[C@H](C)N(C)C(=O)[C@H](Cc3ccc(O)cc3)NC(=O)[C@H](Cc3ccc(-c4ccccc4)cc3)NC(=O)[C@H](C(C)C)NC2=O)c1` [Example 2269] ({CH2CO}-RY(Carboxymethyl)D[Phe(3-Me)]V[Bip]Y[NMeA][dL][Dab][Cha]VQC[Dab][Aun]-OH; thioether N-14): the half-inhibitory concentration (IC50) was found to be 11.9 nM. In the case of `Cc1cccc(C[C@@H]2NC(=O)[C@H](CC(=O)O)NC(=O)[C@H](Cc3ccc(OCC(=O)O)cc3)NC(=O)[C@H](C(C)O)NC(=O)CSC[C@@H](C(=O)N(C)CC(=O)NCCOCCOCC(=O)NCCCCCCCCCCC(=O)O)NC(=O)[C@H](CCC(=O)O)NC(=O)[C@H](C(C)C)NC(=O)[C@H](CC3CCCCC3)NC(=O)[C@H](CCN)NC(=O)[C@@H](CC(C)C)NC(=O)[C@H](C)N(C)C(=O)[C@H](Cc3ccc(O)cc3)NC(=O)[C@H](Cc3ccc(-c4ccccc4)cc3)NC(=O)[C@H](C(C)C)NC2=O)c1` (stereo partly drawn) [Example 2270] ({CH2CO}-[Thr(3ξ)]Y(Carboxymethyl)D[Phe(3-Me)]V[Bip]Y[NMeA][dL][Dab][Cha]VEC[Sar][AEEA][Aun]-OH; thioether N-14), the IC50 was found to be 802 nM. As to `CC(=O)NCCCC[C@@H]1NC(=O)[C@H](C(C)C)NC(=O)[C@H](CC2CCCCC2)NC(=O)[C@H](CCN)NC(=O)[C@@H](CC(C)C)NC(=O)[C@H](C)N(C)C(=O)[C@H](Cc2ccc(O)cc2)NC(=O)[C@H](Cc2ccc(-c3ccccc3)cc2)NC(=O)[C@H](C(C)C)NC(=O)[C@H](Cc2cccc(C)c2)NC(=O)[C@H](CC(=O)O)NC(=O)[C@H](Cc2ccc(OCC(=O)O)cc2)NC(=O)[C@H](CC(N)=O)NC(=O)CSC[C@@H](C(=O)N(C)CC(=O)NCCCCCCCCCCC(=O)O)NC1=O` [Example 2271] ({CH2CO}-NY(Carboxymethyl)D[Phe(3-Me)]V[Bip]Y[NMeA][dL][Dab][Cha]VK(Ac)C[Sar][Aun]-OH; thioether N-14), the half-inhibitory concentration (IC50) is 260 nM.

Take `CC(=O)NCCCC[C@@H]1NC(=O)[C@H](C(C)C)NC(=O)[C@H](CC2CCCCC2)NC(=O)[C@H](CCN)NC(=O)[C@@H](CC(C)C)NC(=O)[C@H](C)N(C)C(=O)[C@H](Cc2ccc(O)cc2)NC(=O)[C@H](Cc2ccc(-c3ccccc3)cc2)NC(=O)[C@H](C(C)C)NC(=O)[C@H](Cc2cccc(C)c2)NC(=O)[C@H](CC(=O)O)NC(=O)[C@H](Cc2ccc(OCC(=O)O)cc2)NC(=O)[C@H](Cc2cnc[nH]2)NC(=O)CSC[C@@H](C(=O)N(C)CC(=O)NCCCCCCCCCCC(=O)O)NC1=O` [Example 2272] ({CH2CO}-HY(Carboxymethyl)D[Phe(3-Me)]V[Bip]Y[NMeA][dL][Dab][Cha]VK(Ac)C[Sar][Aun]-OH; thioether N-14): the IC50 was 231 nM.

With `CC(=O)NCCCC[C@@H]1NC(=O)[C@H](C(C)C)NC(=O)[C@H](CC2CCCCC2)NC(=O)[C@H](CCN)NC(=O)[C@@H](CC(C)C)NC(=O)[C@H](C)N(C)C(=O)[C@H](Cc2ccc(O)cc2)NC(=O)[C@H](Cc2ccc(-c3ccccc3)cc2)NC(=O)[C@H](C(C)C)NC(=O)[C@H](Cc2cccc(C)c2)NC(=O)[C@H](CC(=O)O)NC(=O)[C@H](Cc2ccc(OCC(=O)O)cc2)NC(=O)[C@H](CCCNC(=N)N)NC(=O)CSC[C@@H](C(=O)N(C)CC(=O)NCCCCCCCCCCC(=O)O)NC1=O` [Example 2273] ({CH2CO}-RY(Carboxymethyl)D[Phe(3-Me)]V[Bip]Y[NMeA][dL][Dab][Cha]VK(Ac)C[Sar][Aun]-OH; thioether N-14), the 50% inhibitory concentration (IC50) was determined as 321 nM. To `CC(=O)NCCCC[C@@H]1NC(=O)[C@H](C(C)C)NC(=O)[C@H](CC2CCCCC2)NC(=O)[C@H](CCN)NC(=O)[C@@H](CC(C)C)NC(=O)[C@H](C)N(C)C(=O)[C@H](Cc2ccc(O)cc2)NC(=O)[C@H](Cc2ccc(-c3ccccc3)cc2)NC(=O)[C@H](C(C)C)NC(=O)[C@H](Cc2cccc(C)c2)NC(=O)[C@H](CC(=O)O)NC(=O)[C@H](Cc2ccc(OCC(=O)O)cc2)NC(=O)[C@H](C(C)O)NC(=O)CSC[C@@H](C(=O)N(C)CC(=O)NCCCCCCCCCCC(=O)O)NC1=O` (stereo partly drawn) [Example 2274] ({CH2CO}-[Thr(3ξ)]Y(Carboxymethyl)D[Phe(3-Me)]V[Bip]Y[NMeA][dL][Dab][Cha]VK(Ac)C[Sar][Aun]-OH; thioether N-14) belongs 85.5 nM; to `CC(=O)NCCCC[C@@H]1NC(=O)[C@H](C(C)C)NC(=O)[C@H](CC2CCCCC2)NC(=O)[C@H](CCN)NC(=O)[C@@H](CC(C)C)NC(=O)[C@H](C)N(C)C(=O)[C@H](Cc2ccc(O)cc2)NC(=O)[C@H](Cc2ccc(-c3ccccc3)cc2)NC(=O)[C@H](C(C)C)NC(=O)[C@H](Cc2cccc(C)c2)NC(=O)[C@H](CC(=O)O)NC(=O)[C@H](Cc2ccc(OCC(=O)O)cc2)NC(=O)[C@H](Cc2ccc(O)cc2)NC(=O)CSC[C@@H](C(=O)N(C)CC(=O)NCCCCCCCCCCC(=O)O)NC1=O` [Example 2275] ({CH2CO}-YY(Carboxymethyl)D[Phe(3-Me)]V[Bip]Y[NMeA][dL][Dab][Cha]VK(Ac)C[Sar][Aun]-OH; thioether N-14), 282 nM. For `CC(=O)NCCCC[C@@H]1NC(=O)[C@H](C(C)C)NC(=O)[C@H](CC2CCCCC2)NC(=O)[C@H](CCN)NC(=O)[C@@H](CC(C)C)NC(=O)[C@H](C)N(C)C(=O)[C@H](Cc2ccc(O)cc2)NC(=O)[C@H](Cc2ccc(-c3ccccc3)cc2)NC(=O)[C@H](C(C)C)NC(=O)[C@H](Cc2cccc(C)c2)NC(=O)[C@H](CC(=O)O)NC(=O)[C@H](Cc2ccc(OCC(=O)O)cc2)NC(=O)[C@H](Cc2ccncc2)NC(=O)CSC[C@@H](C(=O)N(C)CC(=O)NCCCCCCCCCCC(=O)O)NC1=O` [Example 2276] ({CH2CO}-[4Pal]Y(Carboxymethyl)D[Phe(3-Me)]V[Bip]Y[NMeA][dL][Dab][Cha]VK(Ac)C[Sar][Aun]-OH; thioether N-14), the IC50 came out at 174 nM. As to `Cc1cccc(C[C@@H]2NC(=O)[C@H](CC(=O)O)NC(=O)[C@H](Cc3ccc(OCC(=O)O)cc3)NC(=O)[C@H](CO)N(C)C(=O)CSC[C@@H](C(=O)NCCOCCOCC(=O)NCCCCCCCCCCC(=O)O)NC(=O)[C@H](CCCNC(=N)N)NC(=O)[C@H](C(C)C)NC(=O)[C@H](CC3CCCCC3)NC(=O)[C@H](CCN)NC(=O)[C@@H](CC(C)C)NC(=O)[C@H](C)N(C)C(=O)[C@H](C(C)C)NC(=O)[C@H](Cc3ccc(-c4ccccc4)cc3)NC(=O)[C@H](CC(C)C)NC2=O)c1` [Example 2277] ({CH2CO}-[NMeS]Y(Carboxymethyl)D[Phe(3-Me)]L[Bip]V[NMeA][dL][Dab][Cha]VRC[AEEA][Aun]-OH; thioether N-14), the half-inhibitory concentration (IC50) is 18.7 nM. To `Cc1cccc(C[C@@H]2NC(=O)[C@H](CC(=O)O)NC(=O)[C@H](Cc3ccc(C(=O)O)cc3)NC(=O)[C@H](Cc3ccc(OCC(=O)O)cc3)NC(=O)CSC[C@@H](C(=O)NCCOCCOCC(=O)NCCCCCCCCCCC(=O)O)NC(=O)[C@H](CCCNC(=N)N)NC(=O)[C@H](C(C)C)NC(=O)[C@H](CC3CCCCC3)NC(=O)[C@H](CCN)NC(=O)[C@@H](CC(C)C)NC(=O)[C@H](CO)N(C)C(=O)[C@H](C(C)C)NC(=O)[C@H](Cc3ccc(-c4ccccc4)cc3)NC(=O)[C@H](CC(C)C)NC2=O)c1` [Example 2278] ({CH2CO}-Y(Carboxymethyl)[Phe(4-COOH)]D[Phe(3-Me)]L[Bip]V[NMeS][dL][Dab][Cha]VRC[AEEA][Aun]-OH; thioether N-14) belongs 34.2 nM; to `CCC(C)[C@@H]1NC(=O)[C@H](Cc2ccc(-c3ccccc3)cc2)NC(=O)[C@H](CC(C)C)NC(=O)[C@H](Cc2c[nH]c3ccccc23)NC(=O)[C@H](CC(=O)O)NC(=O)[C@H](Cc2ccc(C(=O)O)cc2)NC(=O)[C@H](Cc2ccc(OCC(=O)O)cc2)NC(=O)CSC[C@@H](C(=O)NCCOCCOCC(=O)NCCCCCCCCCCC(=O)O)NC(=O)[C@H](CCCNC(=N)N)NC(=O)[C@H](C(C)C)NC(=O)[C@H](CC2CCCCC2)NC(=O)[C@H](CCN)NC(=O)[C@@H](CC(C)C)NC(=O)[C@H](CO)N(C)C1=O` (stereo partly drawn) [Example 2279] ({CH2CO}-Y(Carboxymethyl)[Phe(4-COOH)]DWL[Bip][Ile(3ξ)][NMeS][dL][Dab][Cha]VRC[AEEA][Aun]-OH; thioether N-14), 21.1 nM.

The record behind these values is patent publication US20260070945A1, “MACROCYCLIC IMMUNOMODULATORS” (Bristol-Myers Squibb Company, priority 2022, published 2026).
